Source: article PMC9370021, “Novel 1,3-Thiazole Analogues with Potent Activity against Breast Cancer: A Design, Synthesis, In Vitro, and In Silico Study” (Molecules, 2022)

Key:
[1] = system: MCF-7 breast cancer cell line; test: MTT anti-proliferative assay, MCF-7; format: cell-based; details: Homo sapiens, MCF7, 48 h, mean ± S.E.M.
Protocol: (§1) Toward this aim, the cells were treated with the synthesized compounds at different concentrations and were incubated for 48 h. In our evaluations, staurosporine (STU) was used as a reference drug. After the cells were washed, they were treated with MTT solution, and an ELISA reader assessed the absorption of the solution at a wavelength of 570 nm.
(§2) Finally, the resulting MTT crystals were dissolved at ambient temperature in acidified isopropanol (180 µL/well) with shaking, and the absorption was assessed at 570 nm utilizing ELISA.

[2] = system: MDA-MB-231 breast cancer cell line; test: MTT anti-proliferative assay, MDA-MB-231; format: cell-based; details: mean ± S.E.M.
Protocol: as §1, §2

[3] = target: human VEGFR-2/KDR (Homo sapiens, UniProt P35968); test: VEGFR-2 inhibitory activity (VEGFR-2/KDR ELISA kit)
Protocol: In our experiments, we used Sorafenib as a positive control drug reference. The activity of compounds was assessed at different concentrations, and the IC50 values were determined.

[4] = system: epithelial breast cell line MCF-10A; test: MTT cytotoxicity assay, epithelial breast cells MCF-10A; format: cell-based; details: Homo sapiens, 48 h, mean ± S.E.M.
Protocol: as §1, §2

[5] = system: MCF-7 cells; test: Cell cycle analysis by flow cytometry (propidium iodide); format: cell-based; details: MCF-7, 5.73 µM, 24 h
Protocol: Based on the anti-proliferative activity results, we selected compound 4 to further explore and achieve insights into the mechanism responsible for the cytotoxicity of this class of compounds. Toward this aim, we assessed the effect of compound 4 on the cell cycle distribution of MCF-7 cells utilizing flow cytometry analysis. The cell cycle distribution analysis was evaluated after incubation of MCF-7 cells with compound 4 at 5.73 µM. […] Further, compound 4 induced a substantial diminution in the cellular population at the G2/M stage. As indicated in Figure 5a–c, the cellular populations of the G2/M and pre-G1 phases in the control cells were 16.99% and 2.12%, respectively, while the populations were altered to 6.81% and 31.66%, respectively, in the presence of compound 4 at 5.73 µM.
To assess the effect of compound 4 on the cell cycle of MCF-7 cells, we treated the MCF-7 cells with compound 4 and analyzed the cell cycle arrest at different stages as previously reported. […] After the cells were incubated with propidium iodide (5 mg/mL, Sigma, Ronkonkoma, NY, USA) and Rnase (10 mg/mL, Sigma, Ronkonkoma, NY, USA), cytofluorometry analysis was performed using FACS Calibur cytometer, and the results were analyzed utilizing Cell quest software (BD Bioscience, San Jose, CA, USA).

[6] = system: MCF-7 cells; test: Annexin V-FITC/PI dual staining (apoptosis and necrosis); format: cell-based; details: MCF-7, 5.73 µM, 24 h
Protocol: Our findings encouraged us to further explore the mechanistic insights accounting for the potent cytotoxicity and cell cycle arrest. To investigate whether the mode of action for the antiproliferative activity of compound 4 toward MCF-7 cells involves apoptosis and/or necrosis, we performed Annexin V- FITC/PI dual staining assay. To this end, we treated MCF-7 cells with compound 4 (5.73 µM) for 24h and assessed the programmed cell death at different stages utilizing the cytofluorometry analysis. […] Indeed, treatment with compound 4 increased apoptosis by 9 and 89 times at the early and late stages, respectively, compared to control cells.
To explore the effect of compound 4 on the programmed cell death mechanisms of MCF-7 cells, fluorescent Annexin V-FITC/ PI assay was performed using flow cytometry following a previously reported procedure. Briefly, MCF-7 cells (2 × 10^5) were treated with compound 4 at 5.73 µM concentration. After incubation for 24 h, the harvested cells were stained in the dark at 37 °C with Annexin V-FITC/ PI dye for 15 min. Cytofluorometry analysis was assessed by BD FACS Calibur (Becton and Dickinson, Heidelberg, Germany), and the BD cell Quest pro software was utilized to analyze the results.

Sequence of human VEGFR-2/KDR (P35968 20-1356): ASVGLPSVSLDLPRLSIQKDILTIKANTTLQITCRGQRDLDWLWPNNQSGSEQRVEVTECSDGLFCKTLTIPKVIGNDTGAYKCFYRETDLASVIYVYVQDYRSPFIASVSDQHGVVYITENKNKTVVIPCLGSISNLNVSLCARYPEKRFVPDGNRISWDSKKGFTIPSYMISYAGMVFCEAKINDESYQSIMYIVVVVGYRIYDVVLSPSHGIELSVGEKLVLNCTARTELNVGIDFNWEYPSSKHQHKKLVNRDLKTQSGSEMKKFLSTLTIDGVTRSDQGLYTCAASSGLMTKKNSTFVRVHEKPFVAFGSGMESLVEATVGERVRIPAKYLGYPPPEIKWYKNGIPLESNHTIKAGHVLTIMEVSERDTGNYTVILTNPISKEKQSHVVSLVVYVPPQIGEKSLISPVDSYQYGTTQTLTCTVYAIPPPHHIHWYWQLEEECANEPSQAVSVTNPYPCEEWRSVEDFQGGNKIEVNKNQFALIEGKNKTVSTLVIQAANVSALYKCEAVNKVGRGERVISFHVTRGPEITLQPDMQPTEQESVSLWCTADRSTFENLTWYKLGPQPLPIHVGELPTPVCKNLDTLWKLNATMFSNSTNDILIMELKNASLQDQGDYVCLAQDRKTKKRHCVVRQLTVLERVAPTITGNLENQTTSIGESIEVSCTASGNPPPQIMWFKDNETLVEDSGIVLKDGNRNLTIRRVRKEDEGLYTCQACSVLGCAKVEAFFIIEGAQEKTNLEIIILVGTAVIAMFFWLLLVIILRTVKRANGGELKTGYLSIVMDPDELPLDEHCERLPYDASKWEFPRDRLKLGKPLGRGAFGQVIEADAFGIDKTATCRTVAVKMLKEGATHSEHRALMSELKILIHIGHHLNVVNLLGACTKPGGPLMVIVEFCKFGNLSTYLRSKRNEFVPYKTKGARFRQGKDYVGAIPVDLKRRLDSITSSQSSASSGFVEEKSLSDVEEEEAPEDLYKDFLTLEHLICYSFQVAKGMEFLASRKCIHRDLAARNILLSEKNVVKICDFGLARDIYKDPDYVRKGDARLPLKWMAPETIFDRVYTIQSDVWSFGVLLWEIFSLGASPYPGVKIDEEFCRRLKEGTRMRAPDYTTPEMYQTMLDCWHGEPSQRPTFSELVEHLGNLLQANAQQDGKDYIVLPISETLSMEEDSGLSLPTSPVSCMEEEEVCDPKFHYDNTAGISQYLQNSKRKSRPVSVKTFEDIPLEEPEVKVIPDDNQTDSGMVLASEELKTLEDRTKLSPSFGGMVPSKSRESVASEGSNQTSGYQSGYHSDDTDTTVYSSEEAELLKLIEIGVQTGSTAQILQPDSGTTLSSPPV

| Compound | IC50 [1] | IC50 ([2]; Homo sapiens, MDA-MB-231, 48 h) | melting point | also measured |
| --- | --- | --- | --- | --- |
| Oc1ccc(/C=N/Nc2nc(-c3ccc(Cl)cc3)cs2)cc1 [Compound 3a, (E)-4-((2-(4-(4-Chlorophenyl)thiazol-2-yl)hydrazineylidene)methyl)-phenol] | 24.9 ± 1.9 µM | 18.7 ± 1.42 µM |  |  |
| C/C(=N\Nc1nc(-c2ccc(Cl)cc2)cs1)c1ccc(Br)cc1 [Compound 3b, (E)-2-(2-(1-(4-bromophenyl)ethylidene)hydrazineyl)-4-(4-chlorophenyl)thiazole] | 31.2 ± 2.38 µM | 36.8 ± 2.81 µM | 185 °C |  |
| C/C(=N\Nc1nc(-c2ccc(Br)cc2)cs1)c1ccccc1O [Compound 3c, (E)-2-(1-(2-(4-(4-Bromophenyl)thiazol-2-yl)hydrazineylidene)ethyl)-phenol] | 13.7 ± 1.04 µM | 17.1 µM |  | IC50 ([2]; 48 h): 17.08 ± 0.13 µM; IC50 [3]: 0.253 ± 0.54 µM |
| CC(=O)Nc1nc(-c2ccc(Cl)cc2)cs1 [Compound 4, N-(4-(4-Chlorophenyl)-Thiazol-2-yl)Acetamide] | 5.73 ± 0.44 µM | 12.2 ± 0.93 µM |  | IC50 [4]: 36.8 ± 5 µM; cellular population in pre-G1 phase ([5]; control 2.12%): 31.66%; cellular population in G2/M phase ([5]; control 16.99%): 6.81%; increase of apoptosis at the early stage compared to control cells [6]: 9 times; increase of apoptosis at the late stage compared to control cells [6]: 89 times; increase of necrosis compared to control cells [6]: 9 times; necrosis percentage ([6]; control 1.26%): 11.77% |
| C/C(=N\N(c1nc(-c2ccc(Cl)cc2)cs1)C(O)c1ccc(O)cc1)c1ccc(Br)cc1 (stereo not drawn) [Compound 5a, (E)-4-((2-(1-(4-Bromophenyl)ethylidene)-1-(4-(4-chlorophenyl)thiazol-2-yl)hydrazineyl)(hydroxy)methyl)phenol] | 18.6 ± 1.42 µM | 20.7 ± 1.58 µM | 155 to 157 °C |  |
| COc1cc(C(O)N(/N=C(\C)c2ccc(Br)cc2)c2nc(-c3ccc(Cl)cc3)cs2)ccc1O (stereo not drawn) [Compound 5b, (E)-4-((2-(1-(4-Bromophenyl)ethylidene)-1-(4-(4-chlorophenyl)thiazol-2-yl)hydrazineyl)(hydroxy)methyl)-2-methoxyphenol] | 32.5 ± 2.47 µM | 62.12 ± 0.47 µM | 158 to 160 °C |  |
| CC(=O)Oc1ccc(C(OC(C)=O)N(/N=C(\C)c2ccc(Br)cc2)c2nc(-c3ccc(Cl)cc3)cs2)cc1 (stereo not drawn) [Compound 6a, (E)-4-(Acetoxy(2-(1-(4-bromophenyl)ethylidene)-1-(4-(4-chlorophenyl)thiazol-2-yl)hydrazineyl)methyl)phenyl acetate] | > 100 µM | > 100 µM | 126 to 128 °C |  |
| COc1cc(C(OC(C)=O)N(/N=C(\C)c2ccc(Br)cc2)c2nc(-c3ccc(Cl)cc3)cs2)ccc1OC(C)=O (stereo not drawn) [Compound 6b, (E)-4-(Acetoxy(2-(1-(4-bromophenyl)ethylidene)-1-(4-(4-chlorophenyl)thiazol-2-yl)hydrazineyl)methyl)-2-methoxyphenyl acetate] | 43.8 ± 2.04 µM | 77 ± 1.95 µM | 126 to 128 °C |  |
